Results as given in patent publication US11773368B2, “Culture method for differentiating primordial germ cells into functionally mature oocytes” (TOKYO UNIVERSITY OF AGRICULTURE, priority 2015, dated 2023).

How the values were obtained:
Assay type in all cases: cell-based, mouse
[1] = test system: cumulus-oocyte complexes (COCs); experiment: In vitro maturation to egg
Procedure: The cumulus-oocyte complexes (COCs) were collected from the secondary follicles obtained by “3. In vitro growth culture of secondary follicle” described above. Then, COCs were cultured with α-MEM containing 5% FBS, 0.1 IU/mL FSH, 1.2 IU/mL chorionic gonadotropin (Gonatropin, ASKA Pharmaceutical), and […] (Gibco, Thermo Fisher Scientific Inc.) for 17 hours. Control COCs were collected from adult female mice 44 hours after the injection with equine CG (Serotropin; ASKA Pharmaceutical). The obtained COCs obtained from the adult female mice, in vivo-derived COCs, were cultured with α-MEM containing 5% FBS, 0.1 IU/mL FSH, 1.2 IU/mL chorionic gonadotropin, and 4 ng/mL epidermal growth factor in the same way to in vitro-derived COCs. As a result of in vitro maturation, in (ii) SPS group, (iv) FBS/SPS group, and (v) FBS/ICI group, 77 to 95% oocytes released the first polar body after 17 hours and became MII oocytes (FIGS. 11b and c).

in vitro-matured eggs = experiment: In vitro fertilization and embryo transfer with in vitro-mature egg
Procedure: After 17 hours of the culture, the eggs with expanded cumulus cells were transferred into TYH medium (LSI Medience Corporation) and fertilized with epididymal sperm. In (ii) SPS group, (iv) FBS/SPS group, (v) FBS/ICI group, about 27 to 58% of eggs which processed for in vitro fertilization (IVF) were normally fertilized. Normally fertilized eggs with 2 pronuclei were cultured in KSOM medium. About 83 to 97% Embryos from the fertilized eggs developed to the 2-cell stage. The embryos developed to the 2-cell stage by the culture were transferred into the oviducts of pseudopregnant females at 0.5 dpc. Offspring were delivered by natural means or by caesarean section at 19.5 dpc. As a result, about 14 to 40% of the transferred embryos developed to offspring. The obtained offspring were raised by foster mothers. The offspring were weaned at about 4 weeks of age. […] As mentioned above, there has been no report that eggs obtained by in vitro culture in which the primordial germ cell was used as the starting material developed to offspring. […] In in vitro culture method for producing the functional egg from the primordial germ cell according to this invention, seven pups from one ovary were obtained at a maximum, and on average, 0.3 to 3.3 pups were obtained from one ovary. Pups were physically normal, and they developed normally. Male and female mice developed from eggs differentiated and matured in in vitro culture could produce the offspring after sexual maturation (Table. 2 and FIG. 12).

[2] = test system: secondary follicles from in vitro cultured gonads; experiment: In vitro growth culture of secondary follicle
Procedure: The secondary follicles obtained by the in vitro organ culture of the gonads from the fetuses was processed for in vitro growth culture. […] In this example, the culture was performed with the medium supplemented with PVP which is the high-molecular-weight compound. Furthermore, the inventor found out that oocytes can develop to functional eggs by dissociating a part of the cell layers between a granulosa cell layer and a thecal cell layer which constitute a secondary follicle. Accordingly, in this example, the in vitro culture of the follicle includes a step of partial dissociation between the granulosa cell layer and the thecal cell layer. More concretely, the in vitro culture of the follicle was performed as follows.
After the culture of “1. In vitro organ culture of gonad” for 17 days mentioned above, the cultured gonads (ovaries) were transferred to L15 medium and the secondary follicles formed in the gonads were isolated from the gonads, using a fine Tungsten needle. The secondary follicles were further cultured in α-MEM supplemented with 2% (w/v) PVP, 5% FBS, and 0.1 IU/mL FSH (FOLLISTIM Injection 50; MSD). The secondary follicles were cultured on a Millicell membrane (0.4-μm pore size, 27-mm diameter; Merck Millipore) in a 35-mm culture dish (Falcon, Corning). On day 3 of the culture, the secondary follicles were transferred to 0.1% collagenase type I (Worthington Biochemicals) containing L15 medium and treated for 15 min at 37° C. Then, the theca cell layer of the secondary follicles was removed by pipetting with a pulled fine-glass capillary. Fifty to 60 secondary follicles were cultured on Transwell®-COL or Millicell membranes for another 9 to 13 days at 37° C. in the medium under 5% CO2 and 95% air. The inside and outside of the membrane insert were filled with 1 mL and 2 mL medium, respectively. Approximately half the medium in each well was replaced with fresh medium every other day.

[3] = FBS/1 μM ICI group (ICI day 5-11)
[4] = FBS/1 μM ICI group (ICI day 5-11), 19 cultured gonads
[5] = FBS/5 μM ICI group (ICI day 5-11)
[6] = FBS/5 μM ICI group (ICI day 5-11), 6 cultured gonads
[7] = FBS/10 μM ICI group (ICI day 5-11)
[8] = FBS/10 μM ICI group (ICI day 5-11), 6 cultured gonads
[9] = Vitrification FBS/1 μM ICI (vitrified-warmed gonads)
[10] = Vitrification FBS/1 μM ICI (vitrified-warmed gonads), 4 cultured gonads

C[C@]12CC[C@@H]3c4ccc(O)cc4C[C@@H](CCCCCCCCC[S+]([O-])CCCC(F)(F)C(F)(F)F)[C@H]3[C@@H]1CC[C@@H]2O (stereo partly drawn) [ICI, 7α, 17β-[9-([4,4,5,5,5-pentafluoropentyl]sulfinyl)nonyl]estra-1,3,5(10)-triene-3,17-diol]
No. of oocytes matured into MII, proportion to the number of collected follicles [1, 3]: 50.1% | No. of oocytes matured into MII [1, 4]: 321 | No. of oocytes matured into MII, proportion to the number of collected follicles [1, 5]: 53.8% | No. of oocytes matured into MII [1, 6]: 168 | No. of oocytes matured into MII, proportion to the number of collected follicles [1, 7]: 50.7% | No. of oocytes matured into MII [1, 8]: 256 | No. of oocytes matured into MII, proportion to the number of collected follicles [1, 9]: 64.9% | No. of oocytes matured into MII [1, 10]: 37 | No. of eggs fertilized normally, proportion to the number of collected follicles (in vitro-matured eggs; [3]): 26.2% | No. of embryos developed to two-cell, proportion to the number of collected follicles (in vitro-matured eggs; [3]): 24.2% | No. of pups developed from embryos, proportion to the number of collected follicles (in vitro-matured eggs; [3]): 4.8% | No. of pups from an ovary (in vitro-matured eggs; [3]): 1.6 | No. of eggs fertilized normally (in vitro-matured eggs; [4]): 168 | No. of embryos developed to two-cell (in vitro-matured eggs; [4]): 155 | No. of pups developed from embryos (in vitro-matured eggs; [4]): 31 | No. of eggs fertilized normally, proportion to the number of collected follicles (in vitro-matured eggs; [5]): 30.1% | No. of embryos developed to two-cell, proportion to the number of collected follicles (in vitro-matured eggs; [5]): 29.2% | No. of pups developed from embryos, proportion to the number of collected follicles (in vitro-matured eggs; [5]): 6.4% | No. of pups from an ovary (in vitro-matured eggs; [5]): 3.3 | No. of eggs fertilized normally (in vitro-matured eggs; [6]): 94 | No. of embryos developed to two-cell (in vitro-matured eggs; [6]): 91 | No. of pups developed from embryos (in vitro-matured eggs; [6]): 20 | No. of eggs fertilized normally, proportion to the number of collected follicles (in vitro-matured eggs; [7]): 29.3% | No. of embryos developed to two-cell, proportion to the number of collected follicles (in vitro-matured eggs; [7]): 27.3% | No. of pups developed from embryos, proportion to the number of collected follicles (in vitro-matured eggs; [7]): 3.8% | No. of pups from an ovary (in vitro-matured eggs; [7]): 3.2 | No. of eggs fertilized normally (in vitro-matured eggs; [8]): 148 | No. of embryos developed to two-cell (in vitro-matured eggs; [8]): 138 | No. of pups developed from embryos (in vitro-matured eggs; [8]): 19 | No. of eggs fertilized normally, proportion to the number of collected follicles (in vitro-matured eggs; [9]): 33.3% | No. of embryos developed to two-cell, proportion to the number of collected follicles (in vitro-matured eggs; [9]): 26.3% | No. of pups developed from embryos, proportion to the number of collected follicles (in vitro-matured eggs; [9]): 3.5% | No. of pups from an ovary (in vitro-matured eggs; [9]): 0.5 | No. of eggs fertilized normally (in vitro-matured eggs; [10]): 19 | No. of embryos developed to two-cell (in vitro-matured eggs; [10]): 15 | No. of pups developed from embryos (in vitro-matured eggs; [10]): 2 | No. of collected COCs, proportion to the number of collected follicles [2, 3]: 53.0% | No. of collected COCs [2, 4]: 340 | No. of collected COCs, proportion to the number of collected follicles [2, 5]: 57.1% | No. of collected COCs [2, 6]: 178 | No. of collected COCs, proportion to the number of collected follicles [2, 7]: 55.6% | No. of collected COCs [2, 8]: 281 | average diameter of the oocytes obtained by the in vitro culture ([2]; FBS/10 μM ICI group, n=85): 80.0 μm | No. of collected COCs, proportion to the number of collected follicles [2, 9]: 68.4% | No. of collected COCs [2, 10]: 39
